The source of these data is patent US7566732B2, “Rhodanine compositions for use as antiviral agents” (priority 2003, dated 2009).

This experiment addresses EVp28 (Gst-Evp28) ubiquitin ligase (Ectromelia virus, UniProt Q85318). Nature of the experiment: biochemical.

SMILES strings stand for the structures.

By IC50 is commonly meant the concentration that inhibits the measured activity by half. A lower IC50 goes with greater potency in that assay. Compound `O=C1/C(=C\c2ccc(-c3cccc(C(F)(F)F)c3)o2)SC(=S)N1Cc1ccccc1` [Compound 54, (5E)-3-benzyl-2-thioxo-5-({5-[3-(trifluoromethyl)phenyl]-2-furyl}methylene)-1,3-thiazolidin-4-one] yielded an IC50 of 0.016 µM.
`O=C1/C(=C\c2nc3ccccc3[nH]2)SC(=S)N1c1ccc(F)cc1` [Compound 307] had a 50% inhibitory concentration (IC50) of 0.092 µM.
